In patent US20120009320A1, “COMPOSITIONS COMPRISING MONATIN AND CALCIUM” (priority 2009, published 2012):
Counter-ions that a name gives are not always drawn.

Columns and labels:
panelists [1] = test: Three-member panel rating (0-9 scale) of difference in sweetness due to calcium at <=200 ppm; format: in vivo, human; parameters: key: 0 = none; 1 = trace; 2 = faint; 3 = slight; 4 = mild; 5 = moderate; 6 = definite; 7 = strong; 8 = very strong; 9 = extreme; details: 20 ppm monatin in water, vs control without calcium
Procedure: The samples in Table 5 were prepared by adding 20 ppm of monatin to water in combination with an amount of calcium ranging between 12.5 ppm and 200 ppm. A control sample having 20 ppm of monatin and no calcium was also used. The monatin was in the R,R, form and prepared through a biosynthetic pathway as disclosed in U.S. Patent Publication No. 2005/282260. A three-member panel was used to evaluate sweetness, but instead of quantifying the sample in terms of sweetness equivalency (SEV), the panelists assigned the sample a number between 0 and 9 (see description of scale under Table 5).

panelists [2] = test: Sweetness matching of monatin/salt combinations in water pH 7 and citric/citrate buffer pH 3, Examples 3-5; format: in vivo, human; details: Monatin only (40 ppm), no salt
Procedure: Test and reference solutions were prepared in the same medium. The SEVs of monatin/salt combinations at the appropriate concentrations were measured and compared to the SEV of monatin measured in the absence of any salts. […] Monatin-containing test samples and sucrose references were prepared in the same medium. Based on the previous observations that the sweetness of monatin relative to sucrose is sweeter at acidic pH, this study was carried out under two pH conditions; specifically, in water at pH 7-7.5 and in a citric/citrate buffer at pH 3.0. 2R,4R-Monatin mono potassium salt was used as an illustrative form of monatin for the experiments below. All monatin solutions were prepared ‘as is’, i.e., a 40 ppm monatin solution is 40 ppm of monatin mono potassium salt. A sweetness matching procedure was adopted. […] Each test sample was either monatin control or monatin plus designated salt at the stated concentration. Panelists were instructed to taste the test sample and then to identify the reference sample that matched the perceived sweetness of the test sample. If the sweetness of the test sample was judged to fall between that of two references, panelists were instructed to estimate sweetness to one decimal point. Panelists evaluated each sample in duplicate. Results for each test sample were averaged. […] The five samples were tested at pH 7 (water medium) and at pH 3 (citric/citrate buffer). […] The weight percent of calcium in the salt is different for each of the calcium salts. As such, the weight percent of the calcium salt in each sample is calculated in order to determine how much salt is needed to deliver 1200 ppm of calcium cations. […] The weight percent of the other calcium salts is similarly calculated based on the molar weight percent of calcium in the calcium salt. […] The samples were created at pH 3 and pH 7. The impact of other metal ions, specifically potassium and magnesium, (i.e. […] These ions were tested in the form and concentrations found in cow's milk.

[3] = Sweetness match of monatin-sweetened strawberry yogurt to 8% sucrose target; format: in vivo
Procedure: A strawberry yogurt sweetened with about 8% sucrose was prepared by conventional methods common to one skilled in the art of yogurt manufacturing to serve as a sweetness target. […] The monatin-sweetened yogurt that most closely matched the sweetness of the target sucrose sample was chosen.

panelists [4] = test: Concentration-response of monatin sweetness (SEV) in milk and diluted yogurt, Example 2; format: in vivo, human
Procedure: Monatin, aspartame and sucralose samples were prepared in milk (2% fat) and diluted with plain, fat-free yogurt. Sucrose reference solutions were prepared in solutions of the same medium.
Panelists (8-10) were presented with a range (2-12%; w/v) of sucrose reference solutions and a single test sample. They were instructed to taste the test sample and then to identify the reference sample that matched the perceived sweetness of the test sample. If the sweetness of the test sample was judged to fall between that of two references, panelists were asked to estimate sweetness to one decimal point. Panelists evaluated each sample in duplicate. All results for each test sample were averaged.
Sweetener test samples and sucrose references were prepared as solutions in the following mediums: • (1) Milk (2% fat) at pH 6.8. • (2) A diluted plain (unsweetened and unflavored) yogurt was sheared with water (80 parts yogurt and 20 parts water) to yield an acidic solution based on fermented milk with a final pH of 4.6.

[5] = Diluted Yogurt (pH 4.6), monatin 10 ppm
[6] = Diluted Yogurt (pH 4.6), monatin 20 ppm
[7] = Diluted Yogurt (pH 4.6), monatin 30 ppm
[8] = Diluted Yogurt (pH 4.6), monatin 40 ppm
[9] = Diluted Yogurt (pH 4.6), monatin 50 ppm
[10] = Milk, 2% fat (pH 6.8), monatin 5 ppm
[11] = Milk, 2% fat (pH 6.8), monatin 10 ppm
[12] = Milk, 2% fat (pH 6.8), monatin 20 ppm
[13] = Milk, 2% fat (pH 6.8), monatin 30 ppm
[14] = Milk, 2% fat (pH 6.8), monatin 40 ppm
[15] = Milk, 2% fat (pH 6.8), monatin 50 ppm

Compound: NC(CC(O)(Cc1c[nH]c2ccccc12)C(=O)O)C(=O)O (stereo not drawn) [R,R-Monatin, 2R,4R-Monatin mono potassium salt]
- Difference in Sweetness Due to Calcium (panelists [1]; calcium 12.5 ppm): 1
- Difference in Sweetness Due to Calcium (panelists [1]; calcium 25 ppm): 3
- Difference in Sweetness Due to Calcium (panelists [1]; calcium 50 ppm): 4
- Difference in Sweetness Due to Calcium (panelists [1]; calcium 100 ppm): 5
- Difference in Sweetness Due to Calcium (panelists [1]; calcium 200 ppm): 6
- Sucrose Equivalency Value (panelists [2]; pH 3.0 citric/citrate buffer): 8.6%
- Sucrose Equivalency Value (panelists [2]; pH 7.0 water): 8.4%
- monatin concentration that most closely matched the sweetness of yogurt sweetened to 8% sucrose ([3]; strawberry yogurt): about 25 ppm
- times as sweet as sucrose ([3]; strawberry yogurt): about 3200 times
- SEV ([3]; strawberry yogurt with 25 ppm R,R monatin): about 8%
- Relative Sweetness (panelists [4]; [5]): 4,000 ×sucrose
- SEV (panelists [4]; [5]): 4.0 % sucrose; w/v
- Relative Sweetness (panelists [4]; [6]): 3,300 ×sucrose
- SEV (panelists [4]; [6]): 6.6 % sucrose; w/v
- Relative Sweetness (panelists [4]; [7]): 3,100 ×sucrose
- SEV (panelists [4]; [7]): 9.3 % sucrose; w/v
- Relative Sweetness (panelists [4]; [8]): 2,625 ×sucrose
- SEV (panelists [4]; [8]): 10.5 % sucrose; w/v
- Relative Sweetness (panelists [4]; [9]): 2,280 ×sucrose
- SEV (panelists [4]; [9]): 11.4 % sucrose; w/v
- Relative Sweetness (panelists [4]; [10]): 4,000 ×sucrose
- SEV (panelists [4]; [10]): 2.0 % sucrose; w/v
- Relative Sweetness (panelists [4]; [11]): 3,000 ×sucrose
- SEV (panelists [4]; [11]): 3.0 % sucrose; w/v
- Relative Sweetness (panelists [4]; [12]): 2,750 ×sucrose
- SEV (panelists [4]; [12]): 5.5 % sucrose; w/v
- Relative Sweetness (panelists [4]; [13]): 2,270 ×sucrose
- SEV (panelists [4]; [13]): 6.8 % sucrose; w/v
- Relative Sweetness (panelists [4]; [14]): 2,100 ×sucrose
- SEV (panelists [4]; [14]): 8.4 % sucrose; w/v
- Relative Sweetness (panelists [4]; [15]): 1,780 ×sucrose
- SEV (panelists [4]; [15]): 8.9 % sucrose; w/v
